Reference: patent EP0316690A2, “Agent for the treatment of ischemic heart diseases” (Dr. Karl Thomae GmbH, priority 1987, dated 1989)

What was measured:
[1] = test system: glattmuskuläre coronare Muscarinrezeptoren; assay: Isolated perfused Langendorff heart: antagonism of the carbachol effect on coronary flow (CF); parameters: species or system Wistar Ratten; settings: for Coronarselektivität (Affinität für coronare vs. frequenzbeeinflussende M-Rezeptoren): comparison of CF and HR effects in the isolated rat heart; for pA₂-Werte Coronarflußeffekt CF: isolated rat heart, agonist Carbachol bolus 10⁻⁶ bis 10⁻²M, antagonist in perfusate, constant pressure 70 mm Hg
Protocol: (§1) Meßparameter sind Herzfrequenz und Coronarfluß.
(§2) Männliche Wistar Ratten mit einem Körpergewicht zwischen 300 und 350 g wurden mit Pentobarbital (70 mg/kg i.p.) anaesthe siert. […] Die Herzen wurden über die Aorta mit Krebs-Henseleit-Puffer (KHB) retograd bei einem konstanten Druck von 70 mm Hg perfundiert. Die Zusammensetzung des KHB betrug in mM: Kochsalz 114, Kaliumchlorid 4,7, Natriumbicarbonat 23,6, Kaliumdihydrogenphosphat 1,2, Magnesiumsulfat 1,1, Calziumchlorid 2,5. 11 mM Glucose wurden als Substrat beigefügt. Die Herzfrequenz (HR) wurde durch einen Tachographen (IFD, Mülheim) gemessen, der Coronarfluß (CF) wurde mittels eines elektromagnetischen Flowmeters (IFD, Mülheim) in Verbindung mit einer Sonde in dem zuführenden Teil der Aorta bestimmt.
(§3) Nach einer 15-minütigen Stabilisierungsphase in allen Experimenten wurde die erste Dosis-Wirkungs-Kurve erstellt. Dies geschah durch die Gabe von dem Fluß angepaßten Bolus-Injektionen (0,01 ml/10 ml CF) mit ansteigenden Dosierungen von Carbachol (10⁻⁶ bis 10⁻²M). Danach wurde die niedrigste Dosis des Antagonisten dem Perfusat beigegeben und die Dosis-Wirkungs-Kurve erneut aufgenommen. Darauffolgend gab man eine höhere Dosis des Antagonisten zu und es wurde der Einfluß von Carbachol auf den Coronarfluß (CF) und die Herzfrequenz (HF) erneut durch die Aufnahme von Dosis-Wirkungs-Kurven quantifiziert.

[2] = molecular target: T1, frequenzbeeinflussende M-Rezeptoren (Rattus norvegicus, UniProt P10980); assay: Isolated perfused Langendorff heart: antagonism of the negative chronotropic carbachol effect on heart rate (HR/HF); parameters: species or system Wistar Ratten; settings: isolated spontaneously beating rat heart, agonist Carbachol bolus 10⁻⁶ bis 10⁻²M, antagonist in perfusate; read-out: pA₂-Werte Herzfrequenz-Effekt HR (converted)
T1 construct: danach das Herz entnommen; from tissue; host or cells: isolated perfused Langendorff heart of male Wistar rats
T1 sequence (P10980 1-466): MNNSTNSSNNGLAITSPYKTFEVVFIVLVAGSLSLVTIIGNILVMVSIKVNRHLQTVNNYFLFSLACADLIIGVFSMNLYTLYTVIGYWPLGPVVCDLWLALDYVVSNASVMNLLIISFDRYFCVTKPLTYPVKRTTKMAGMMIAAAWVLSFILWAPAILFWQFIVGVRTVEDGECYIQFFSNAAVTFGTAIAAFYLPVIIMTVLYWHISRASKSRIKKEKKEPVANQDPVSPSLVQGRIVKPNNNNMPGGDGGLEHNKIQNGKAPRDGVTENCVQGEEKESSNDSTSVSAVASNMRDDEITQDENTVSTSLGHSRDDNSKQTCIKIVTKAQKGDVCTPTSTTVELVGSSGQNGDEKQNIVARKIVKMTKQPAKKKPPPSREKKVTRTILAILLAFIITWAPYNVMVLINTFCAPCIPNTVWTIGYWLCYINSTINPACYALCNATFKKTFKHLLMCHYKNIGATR
Protocol: as §1, §2, §3

Row | SMILES | Kb ([1]; read-out: pA₂-Werte Coronarflußeffekt CF (converted)) [nM] | Kb [2] [nM] | Coronarselektivität (Affinität für coronare vs. frequenzbeeinflussende M-Rezeptoren) [1] | pA₂-Werte Coronarflußeffekt CF [1]
1 | CN1C2CCC1CC(OC(=O)C(CO)c1ccccc1)C2 (racemic) [Atropin, reference compound] | 0.631 | – | – | –
2 | CN1CCC(CC(=O)N2c3ccccc3C(=O)Nc3cccc(Cl)c32)CC1 (racemic) [Substanz I, 6-Chlor-5,10-dihydro-5-[(1-methyl-4-piperidinyl)acetyl]-11H-dibenzo[b,e][1,4]diazepin-11-on] | – | 50.1 | höhere Affinität für coronare als für frequenzbeeinflussende M-Rezeptoren | 7,9 ± 0,2
3 | CN1CCC(CC(=O)N2c3ccccc3C(=O)Nc3cccc(Cl)c32)CC1 (single isomer, unassigned) [Substanz II, (+)-6-Chlor-5,10-dihydro-5-[(1-methyl-4-piperidinyl)acetyl]-11H-dibenzo[b,e][1,4]diazepin-11-on] | – | 31.6 | höhere Affinität für coronare als für frequenzbeeinflussende M-Rezeptoren | 8,2 ± 0,1
